System: MV-4-11 cells
Assay: Gene expression microarray analysis (Affymetrix PrimeView) and GSEA
Type: cell-based, human
Design: RFU PODN (11730768_x_at) / Fold change /veh PODN (11730768_x_at) / RFU LINC00158 (11744669_a_at) / Fold change /veh LINC00158 (11744669_a_at) / RFU DUSP10 (11751237_a_at) / Fold change /veh DUSP10 (11751237_a_at) / RFU ID3 (11757404_x_at) / Fold change /veh ID3 (11757404_x_at) / RFU PLEKHG5 (11737974_s_at) / Fold change /veh PLEKHG5 (11737974_s_at) / RFU LRRC4B (11730491_at) / Fold change /veh LRRC4B (11730491_at) / RFU GIMAP4 (11747438_a_at) / Fold change /veh GIMAP4 (11747438_a_at) / RFU KRT8 (11758183_x_at) / Fold change /veh KRT8 (11758183_x_at) / RFU CNN1 (11734310_a_at) / Fold change /veh CNN1 (11734310_a_at) / RFU VPS37D (11726825_at) / Fold change /veh VPS37D (11726825_at) / RFU C10orf10 (11716522_x_at) / Fold change /veh C10orf10 (11716522_x_at) / RFU KIR2DL2 /// KIR2DL4 /// KIR2DL5A /// KIR2DL5B /// KIR2DS1 /// KIR2DS2 /// KIR2DS3 /// KIR2DS4 /// KIR3DL3 /// KIR3DL3 /// KIR3DS1 (11738374_at) / Fold change /veh KIR2DL2 /// KIR2DL4 /// KIR2DL5A /// KIR2DL5B /// KIR2DS1 /// KIR2DS2 /// KIR2DS3 /// KIR2DS4 /// KIR3DL3 /// KIR3DL3 /// KIR3DS1 (11738374_at) / RFU C1QL1 (11718748_at) / Fold change /veh C1QL1 (11718748_at) / RFU TMPRSS4 (11747572_a_at) / Fold change /veh TMPRSS4 (11747572_a_at) / RFU HAMP (11756126_x_at) / Fold change /veh HAMP (11756126_x_at) / RFU RNFT2 (11725882_a_at) / Fold change /veh RNFT2 (11725882_a_at) / RFU NR4A2 (11747474_a_at) / Fold change /veh NR4A2 (11747474_a_at) / RFU ABCC12 (11746883_a_at) / Fold change /veh ABCC12 (11746883_a_at) / RFU TMEM136 (11760407_x_at) / Fold change /veh TMEM136 (11760407_x_at) / RFU CLDN22 /// WWC2 (11732394_at) / Fold change /veh CLDN22 /// WWC2 (11732394_at) / RFU HLA-DPB1 (11760878_x_at) / Fold change /veh HLA-DPB1 (11760878_x_at) / RFU SPINT1 (11716480_a_at) / Fold change /veh SPINT1 (11716480_a_at) / RFU GAP43 (11754022_s_at) / Fold change /veh GAP43 (11754022_s_at) / RFU A4GNT (11735810_at) / Fold change /veh A4GNT (11735810_at) / RFU PRB3 (11715151_x_at) / Fold change /veh PRB3 (11715151_x_at) / RFU TUBB4B (11761932_at) / Fold change /veh TUBB4B (11761932_at) / RFU CAPN14 (11732068_a_at) / Fold change /veh CAPN14 (11732068_a_at) / RFU TMCC2 (11721928_a_at) / Fold change /veh TMCC2 (11721928_a_at) / RFU IRGQ (11745062_a_at) / Fold change /veh IRGQ (11745062_a_at) / RFU FAM174B (11720279_a_at) / Fold change /veh FAM174B (11720279_a_at) / RFU TMPRSS4 (11748680_a_at) / Fold change /veh TMPRSS4 (11748680_a_at) / RFU FAM212B (11763350_a_at) / Fold change /veh FAM212B (11763350_a_at) / RFU PLEKHG5 (11743358_a_at) / Fold change /veh PLEKHG5 (11743358_a_at) / RFU ZSCAN30 (11745921_a_at) / Fold change /veh ZSCAN30 (11745921_a_at) / RFU CMKLR1 (11741424_a_at) / Fold change /veh CMKLR1 (11741424_a_at) / RFU LOC101060620 /// MAPK8IP1 (11723275_at) / Fold change /veh LOC101060620 /// MAPK8IP1 (11723275_at) / RFU SPTSSB (11747773_x_at) / Fold change /veh SPTSSB (11747773_x_at) / RFU PRSS12 (11739890_at) / Fold change /veh PRSS12 (11739890_at) / RFU BIN1 (11741810_x_at) / Fold change /veh BIN1 (11741810_x_at) / RFU WNT11 (11732464_a_at) / Fold change /veh WNT11 (11732464_a_at) / RFU C10orf10 (11716521_a_at) / Fold change /veh C10orf10 (11716521_a_at) / RFU C5orf56 (11738089_at) / Fold change /veh C5orf56 (11738089_at) / RFU CYB561 (11721691_x_at) / Fold change /veh CYB561 (11721691_x_at) / RFU ANKRD19P (11752326_a_at) / Fold change /veh ANKRD19P (11752326_a_at) / RFU OR2T12 /// OR2T33 /// OR2T8 (11738714_s_at) / Fold change /veh OR2T12 /// OR2T33 /// OR2T8 (11738714_s_at) / RFU VCAN (11748164_a_at) / Fold change /veh VCAN (11748164_a_at) / RFU JSRP1 (11732532_at) / Fold change /veh JSRP1 (11732532_at) / RFU KRTAP10-11 (11738290_x_at) / Fold change /veh KRTAP10-11 (11738290_x_at) / RFU MYO3A (11730013_a_at) / Fold change /veh MYO3A (11730013_a_at) / RFU EBF3 (11725865_a_at) / Fold change /veh EBF3 (11725865_a_at) / RFU CAMK2N1 (11719241_x_at) / Fold change /veh CAMK2N1 (11719241_x_at) / RFU C5orf56 (11738088_a_at) / Fold change /veh C5orf56 (11738088_a_at) / RFU OLFML3 (11715873_a_at) / Fold change /veh OLFML3 (11715873_a_at) / RFU LOC100653217 /// NTM (11731650_a_at) / Fold change /veh LOC100653217 /// NTM (11731650_a_at) / RFU MAPK11 (11762145_a_at) / Fold change /veh MAPK11 (11762145_a_at) / RFU FIZ1 (11724087_x_at) / Fold change /veh FIZ1 (11724087_x_at) / RFU OASL (11726364_x_at) / Fold change /veh OASL (11726364_x_at) / RFU SOX15 (11748057_x_at) / Fold change /veh SOX15 (11748057_x_at) / RFU CD79A (11719716_a_at) / Fold change /veh CD79A (11719716_a_at) / RFU HIST1H1D (11736915_at) / Fold change /veh HIST1H1D (11736915_at) / RFU CASKIN2 (11723855_a_at) / Fold change /veh CASKIN2 (11723855_a_at) / RFU LOC730098 (11760151_x_at) / Fold change /veh LOC730098 (11760151_x_at) / RFU OR4N2 (11742367_at) / Fold change /veh OR4N2 (11742367_at) / RFU PRRT2 (11749266_a_at) / Fold change /veh PRRT2 (11749266_a_at) / RFU SNX32 (11753110_a_at) / Fold change /veh SNX32 (11753110_a_at) / RFU CDHR5 (11726645_a_at) / Fold change /veh CDHR5 (11726645_a_at) / RFU RCAN1 (11760418_a_at) / Fold change /veh RCAN1 (11760418_a_at) / RFU FAM167A (11723789_a_at) / Fold change /veh FAM167A (11723789_a_at) / RFU FAM26E (11764081_at) / Fold change /veh FAM26E (11764081_at) / RFU ISYNA1 (11749810_s_at) / Fold change /veh ISYNA1 (11749810_s_at) / RFU ACY1 (11761880_at) / Fold change /veh ACY1 (11761880_at) / RFU 11764098_at / Fold change /veh 11764098_at / RFU SAMD14 (11745864_x_at) / Fold change /veh SAMD14 (11745864_x_at) / RFU NPB (11741838_a_at) / Fold change /veh NPB (11741838_a_at) / RFU TMPRSS6 (11731388_a_at) / Fold change /veh TMPRSS6 (11731388_a_at) / RFU KRTAP10-2 (11738614_at) / Fold change /veh KRTAP10-2 (11738614_at) / RFU ARHGAP8 /// PRR5-ARHGAP8 (11727945_x_at) / Fold change /veh ARHGAP8 /// PRR5-ARHGAP8 (11727945_x_at) / RFU KRTAP5-7 /// NADSYN1 (11734609_at) / Fold change /veh KRTAP5-7 /// NADSYN1 (11734609_at) / RFU RASL12 (11751679_a_at) / Fold change /veh RASL12 (11751679_a_at) / RFU CDKN2B (11736163_a_at) / Fold change /veh CDKN2B (11736163_a_at) / RFU PRF1 (11729649_at) / Fold change /veh PRF1 (11729649_at) / RFU, ZNF638 /// ZNF638-IT1 / Fold change vs veh, ZNF638 /// ZNF638-IT1 / RFU, PANK3 / Fold change vs veh, PANK3 / RFU, SH3YL1 / Fold change vs veh, SH3YL1 / RFU, ZEB2 / Fold change vs veh, ZEB2 / RFU, NRIP1 / Fold change vs veh, NRIP1 / RFU, PTTG1IP / Fold change vs veh, PTTG1IP / RFU, CAPN2 / Fold change vs veh, CAPN2 / RFU, MED14 / Fold change vs veh, MED14 / RFU, SNORA58 / Fold change vs veh, SNORA58 / RFU, C1orf63 / Fold change vs veh, C1orf63 / RFU, LRRFIP1 / Fold change vs veh, LRRFIP1 / RFU, NDUFAF7 / Fold change vs veh, NDUFAF7 / RFU, SLC12A2 / Fold change vs veh, SLC12A2 / RFU, IBTK / Fold change vs veh, IBTK / RFU, ESF1 / Fold change vs veh, ESF1 / Fold change vs veh, TMEM50B / RFU, TAOK1 / Fold change vs veh, TAOK1 / RFU, ACBD3 / Fold change vs veh, ACBD3 / RFU, TMA16 / Fold change vs veh, TMA16 / RFU, RWDD3 / Fold change vs veh, RWDD3 / RFU, BCAT1 / Fold change vs veh, BCAT1 / RFU, EDEM3 / Fold change vs veh, EDEM3 / RFU, TMEM33 / Fold change vs veh, TMEM33 / RFU, WDR75 / Fold change vs veh, WDR75 / RFU, AHCTF1 / Fold change vs veh, AHCTF1 / RFU, TFRC / Fold change vs veh, TFRC / RFU, ZDHHC17 / Fold change vs veh, ZDHHC17 / RFU, NOM1 / Fold change vs veh, NOM1 / RFU, ARL8B / Fold change vs veh, ARL8B / RFU, ZBTB11 / Fold change vs veh, ZBTB11 / RFU, TAMM41 / Fold change vs veh, TAMM41 / RFU, KIAA1704 /// LOC100996395 / Fold change vs veh, KIAA1704 /// LOC100996395 / RFU, ING1 / Fold change vs veh, ING1 / RFU, TRMT61B / Fold change vs veh, TRMT61B / RFU, FUBP3 / Fold change vs veh, FUBP3 / RFU, TP53 / Fold change vs veh, TP53 / RFU, TNKS2 / Fold change vs veh, TNKS2 / RFU, ZFP14 / Fold change vs veh, ZFP14 / RFU, ACTR2 / Fold change vs veh, ACTR2 / RFU, PPP3R1 / Fold change vs veh, PPP3R1 / RFU, PIK3R1 / Fold change vs veh, PIK3R1 / RFU, HNRNPA1 / Fold change vs veh, HNRNPA1 / RFU, RNF170 / Fold change vs veh, RNF170 / RFU, ZNF28 / Fold change vs veh, ZNF28 / RFU, RNGTT / Fold change vs veh, RNGTT / RFU, OGT / Fold change vs veh, OGT / RFU, BRD1 / Fold change vs veh, BRD1 / RFU, MARS / Fold change vs veh, MARS / RFU, ZNF655 / Fold change vs veh, ZNF655 / RFU, FAHD1 / Fold change vs veh, FAHD1 / RFU, BDP1 / Fold change vs veh, BDP1 / RFU, LRRCC1 / Fold change vs veh, LRRCC1 / RFU, ARID1A / Fold change vs veh, ARID1A / RFU, ZNF146 / Fold change vs veh, ZNF146 / RFU, ZNF330 / Fold change vs veh, ZNF330 / RFU, GPN3 / Fold change vs veh, GPN3 / RFU, C9orf123 / Fold change vs veh, C9orf123 / RFU, N4BP2L2 / Fold change vs veh, N4BP2L2 / RFU, ARFIP1 / Fold change vs veh, ARFIP1 / RFU, FAM179B / Fold change vs veh, FAM179B / RFU, BCL10 / Fold change vs veh, BCL10 / RFU, UHRF1BP1L / Fold change vs veh, UHRF1BP1L / RFU, BET1 / Fold change vs veh, BET1 / RFU, CNOT2 / Fold change vs veh, CNOT2 / RFU, ZNF268 / Fold change vs veh, ZNF268 / Fold change vs veh, ZNF507 / RFU, DGCR2 / Fold change vs veh, DGCR2 / RFU, WDSUB1 / Fold change vs veh, WDSUB1 / Fold change vs veh, HSP90B1 /// MIR3652 / RFU, ADSS / Fold change vs veh, ADSS / RFU, GK / Fold change vs veh, GK / RFU, ZNF148 / Fold change vs veh, ZNF148 / RFU, TAF9 / Fold change vs veh, TAF9 / RFU, SLC1A5 / Fold change vs veh, SLC1A5 / RFU, SLMO2 / Fold change vs veh, SLMO2 / RFU, ABCC4 / Fold change vs veh, ABCC4 / RFU, LOC101060439 /// RAP1B / Fold change vs veh, LOC101060439 /// RAP1B / RFU, RFX7 / Fold change vs veh, RFX7 / RFU, GTPBP10 / Fold change vs veh, GTPBP10 / RFU, CNEP1R1 / Fold change vs veh, CNEP1R1 / RFU, BIVM-ERCC5 /// ERCC5 / Fold change vs veh, BIVM-ERCC5 /// ERCC5 / RFU, ILF3 / Fold change vs veh, ILF3 / RFU 11762660_at / Fold change /veh 11762660_at / RFU VCAN (11757783_s_at) / Fold change /veh VCAN (11757783_s_at) / RFU DDX43 (11728927_at) / Fold change /veh DDX43 (11728927_at) / RFU KRT8 (11758188_x_at) / Fold change /veh KRT8 (11758188_x_at) / RFU NKD1 (11759106_at) / Fold change /veh NKD1 (11759106_at) / RFU SRD5A1 (11742802_a_at) / Fold change /veh SRD5A1 (11742802_a_at) / RFU TPSAB1 /// TPSB2 (11721975_s_at) / Fold change /veh TPSAB1 /// TPSB2 (11721975_s_at) / RFU GSTM3 (11746129_a_at) / Fold change /veh GSTM3 (11746129_a_at) / RFU IL23R (11737362_x_at) / Fold change /veh IL23R (11737362_x_at) / RFU TMEM51 (11727254_a_at) / Fold change /veh TMEM51 (11727254_a_at) / RFU PIWIL2 (11732686_x_at) / Fold change /veh PIWIL2 (11732686_x_at) / RFU ORM1 (11744905_x_at) / Fold change /veh ORM1 (11744905_x_at) / RFU CCDC152 (11743942_at) / Fold change /veh CCDC152 (11743942_at) / RFU ECM1 (11717891_a_at) / Fold change /veh ECM1 (11717891_a_at) / RFU IL23R (11748794_a_at) / Fold change /veh IL23R (11748794_a_at) / RFU TNFAIP8L3 (11732012_x_at) / Fold change /veh TNFAIP8L3 (11732012_x_at) / RFU MBOAT4 (11741988_at) / Fold change /veh MBOAT4 (11741988_at) / RFU 11764193_at / Fold change /veh 11764193_at / RFU TMEM53 (11763286_at) / Fold change /veh TMEM53 (11763286_at) / RFU MAGEB2 (11727129_at) / Fold change /veh MAGEB2 (11727129_at) / RFU TMEM200A (11744735_a_at) / Fold change /veh TMEM200A (11744735_a_at) / RFU CCDC152 (11751479_a_at) / Fold change /veh CCDC152 (11751479_a_at) / RFU FAM211A (11726209_a_at) / Fold change /veh FAM211A (11726209_a_at) / RFU RGS16 (11746705_a_at) / Fold change /veh RGS16 (11746705_a_at) / RFU VCAN (11755009_s_at) / Fold change /veh VCAN (11755009_s_at) / RFU RHOB (11743442_s_at) / Fold change /veh RHOB (11743442_s_at) / RFU RGS16 (11720943_a_at) / Fold change /veh RGS16 (11720943_a_at) / RFU RGS16 (11720944_at) / Fold change /veh RGS16 (11720944_at) / RFU, VPS4B / Fold change vs veh, VPS4B / RFU, CREB1 / Fold change vs veh, CREB1 / RFU, DNAJC13 / Fold change vs veh, DNAJC13 / RFU, GNAQ / Fold change vs veh, GNAQ / RFU, CDK5R1 / Fold change vs veh, CDK5R1 / RFU, ZRANB3 / Fold change vs veh, ZRANB3 / RFU, CUL4A / Fold change vs veh, CUL4A / RFU, CCNY / Fold change vs veh, CCNY / RFU, UFL1 / Fold change vs veh, UFL1 / RFU, COG3 / Fold change vs veh, COG3 / RFU, DIAPH2 / Fold change vs veh, DIAPH2 / RFU, SKA2 / Fold change vs veh, SKA2 / RFU, AFF3 / Fold change vs veh, AFF3 / RFU, LMF1 / Fold change vs veh, LMF1 / RFU, IPO11 / Fold change vs veh, IPO11 / RFU, DFFB / Fold change vs veh, DFFB / RFU, FOXP1 / Fold change vs veh, FOXP1 / RFU, CARD8 / Fold change vs veh, CARD8 / RFU, STRN3 / Fold change vs veh, STRN3 / RFU, ADK / Fold change vs veh, ADK / RFU, RASSF2 / Fold change vs veh, RASSF2 / RFU, WIPF1 / Fold change vs veh, WIPF1 / RFU, LARP1B / Fold change vs veh, LARP1B / RFU, RASA1 / Fold change vs veh, RASA1 / RFU, RB1 / Fold change vs veh, RB1 / RFU, PPFIA1 / Fold change vs veh, PPFIA1 / RFU, MAT2A / Fold change vs veh, MAT2A / RFU, CCT5 / Fold change vs veh, CCT5 / RFU, WDR92 / Fold change vs veh, WDR92 / RFU, CUX1 / Fold change vs veh, CUX1 / RFU, TTC7A / Fold change vs veh, TTC7A / RFU, TMEM135 / Fold change vs veh, TMEM135 / RFU, DEPTOR / Fold change vs veh, DEPTOR / RFU, CPM / Fold change vs veh, CPM / RFU, DNAJB6 / Fold change vs veh, DNAJB6 / RFU, CACNA2D3 / Fold change vs veh, CACNA2D3 / RFU, DTX4 / Fold change vs veh, DTX4 / RFU, TFCP2 / Fold change vs veh, TFCP2 / RFU, GMCL1 /// GMCL1P1 / Fold change vs veh, GMCL1 /// GMCL1P1 / RFU, AEBP2 / Fold change vs veh, AEBP2 / RFU, SNHG1 /// SNORD22 /// SNORD25 /// SNORD26 /// SNORD27 /// SNORD28 /// SNORD29 /// SNORD31 / Fold change vs veh, SNHG1 /// SNORD22 /// SNORD25 /// SNORD26 /// SNORD27 /// SNORD28 /// SNORD29 /// SNORD31 / Fold change (Aza/veh), C12orf56 (ProbeSet 11735607_a_at) / Fold change (ACY-1035/veh), C12orf56 (ProbeSet 11735607_a_at) / Fold change (Aza/veh), FGFR1OP (ProbeSet 11751329_s_at) / Fold change (ACY-1035/veh), FGFR1OP (ProbeSet 11751329_s_at) / Fold change (Aza/veh), VPS36 (ProbeSet 11739960_a_at) / Fold change (ACY-1035/veh), VPS36 (ProbeSet 11739960_a_at) / RFU SYPL1 (11715823_x_at) / Fold change /veh SYPL1 (11715823_x_at) / RFU IGFBP7 (11715501_s_at) / Fold change /veh IGFBP7 (11715501_s_at) / RFU REEP3 (11722064_at) / Fold change /veh REEP3 (11722064_at) / RFU IGLL1 (11728026_x_at) / Fold change /veh IGLL1 (11728026_x_at): dose or concentration left out as unconfirmed
Conditions: MV-4-11 cells, 48 hours

## Nc1ccc(-c2cccs2)cc1NC(=O)c1ccc2c(c1)cc(C1CC1)n2CCN1CCOCC1 [ACY-1035]
  RFU REEP3 (11722064_at): 19.86 RFU
